Experiment in all cases: NCI tumour cell line growth inhibition, 48 h
The test system of experiment [1] is ACHN renal.
Experiment [2] deals with BT-549 breast.
Experiment [3] deals with HCC-2998 colon.
Experiment [4] deals with MALME-3M melanoma.
The test system of experiment [5] is RXF 393 renal.
Experiment [6] has as its system SF-268 CNS.
Experiment [7] deals with SK-OV-3 ovarian.
The test system of experiment [8] is SR leukemia.
The subject of experiment [9] is UACC-257 melanoma.
Experiment [10] has as its system UACC-62 melanoma.

Among the data in PubChem BioAssay (NCI) are GI50 and TGI values, retold here.

Values joined by “and” are separate entries in the source; they are usually repeats but may differ in a detail not shown here. Equal values may be shown once.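 Step 1: Grow cells in 96-well plates. Step 2: Expose to compound for 48 hours at 5 concentrations. Step 3: Interpolate endpoints linearly; if unreached, use highest concentration. Abbreviation: GI50, concentration required for 50% inhibition of growth. TGI marks complete inhibition of growth.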 Bounds are passed on as bounds.

Take `O=C1Nc2ccc(Cl)cc2/C1=C\c1c(-c2ccc(Cl)cc2)nc2sc(C3CC3)nn12`: the GI50 in experiment [1] was 2.77 µM; in experiment [2], 2.52 µM; in experiment [3] it was 6.94 µM; in experiment [4] it was 2.9 µM; in [5], 1.91 µM; in [6], 3.21 µM. Further, the GI50 in [7] is 2.51 µM; in experiment [8], 12.6 µM; in experiment [9] it was 3.36 µM; in [10] it was 3.06 µM. Besides, the TGI stood at 12.3 µM in experiment [1]; 9.27 µM in experiment [2]; 22.3 µM in experiment [3]; 8.79 µM in experiment [4]; 5.09 µM in [5]; 12.9 µM in experiment [6]. Besides, the TGI amounted to 6.64 µM in experiment [7], 75.8 µM in [8], 14.4 µM in experiment [9] and 14.5 µM in experiment [10].
`CO[C@H]1C[C@@H]2CC[C@@H](C)[C@@](O)(O2)C(=O)C(=O)N2CCCC[C@H]2C(=O)O[C@H]([C@H](C)C[C@@H]2CC[C@@H](OC(=O)C(C)(CO)CO)[C@H](OC)C2)CC(=O)[C@H](C)/C=C(\C)[C@@H](O)[C@@H](OC)C(=O)[C@H](C)C[C@H](C)\C=C/C=C/C=C/1C`: the GI50 in experiment [1] was > 9.24 µM; in [2], 0.00363 µM; in [4], 0.00766 µM; in experiment [5] it was < 0.001 µM; in experiment [7] it was 0.00139 µM; in experiment [8], 0.00251 µM. Further, the results for the GI50 in experiment [9] and in experiment [10] were > 10 µM and 0.0087 µM, respectively. Also, the TGI in [1], in experiment [2], in experiment [3], in [4], in experiment [5] and in [6] was > 10 µM throughout. Also, the TGI in experiment [7], in experiment [8], in experiment [9] and in experiment [10] was > 10 µM each time.
With `COC(=O)NC1C(C)OC(OC2C/C=C(/C)C3C=CC4C(OC5CC(OC6CCC(OC7CC(O)C(OC8CCC(O)C(C)O8)C(C)O7)C(C)O6)C(OC(C)=O)C(C)O5)C(C)CC(C)C4C3(C)/C(O)=C3/C(=O)OC4(CC(C=O)=CC(O)C4/C=C\2C)C3=O)CC1(C)[N+](=O)[O-]` (stereo unspecified), the TGI is 2.72 µM in experiment [1]; 2.18 µM in experiment [2]; 1.95 µM and 0.453 µM in experiment [3]; 1.62 µM and 0.292 µM in [4]; 1.27 µM and 0.334 µM in experiment [5]; 11.2 µM and 9.73 µM in experiment [6]. The TGI was 7.51 µM and 8.97 µM in experiment [7]; 11 µM in experiment [8]; 2.47 µM and 11.1 µM in [9]; 1.47 µM and 0.319 µM in experiment [10]. Moreover, the GI50 in experiment [3] was 0.208 µM; in [4] it was 0.12 µM; in experiment [5], 0.158 µM; in experiment [6], 0.105 µM; in [7], 2.85 µM; in experiment [9], 1.09 µM. Moreover, in experiment [10], the GI50 was 0.155 µM.
Regarding `CSC1=NC(=Nc2c(C)cccc2C)C2(CCC(C(C)(C)C)CC2)N1c1ccc(Cl)cc1` (stereo unspecified), the GI50 is 8.4 µM in experiment [1]; 54.1 µM in experiment [2]; 92.9 µM in [3]; 42.6 µM in [4]; 52.4 µM in experiment [5]; 32.5 µM in experiment [6]. The GI50 is > 100 µM in experiment [7], 4.21 µM in [8] and 45.3 µM in experiment [10]. Further, the TGI in experiment [1], in [2], in experiment [3], in [4], in [5] and in experiment [6] was > 100 µM each time. Moreover, the TGI in experiment [7], in experiment [8] and in experiment [10] was > 100 µM throughout.
As for `CC(=O)Nc1ccc(C(=O)CCl)cc1`, the GI50 in [1] was 1.8 µM; in [2] it was 4.94 µM; in experiment [3], 7.48 µM; in [5], 3.41 µM; in [6], 13.9 µM; in experiment [7] it was 15.1 µM. In addition, the figures for the GI50 in experiment [8], in [9] and in [10] were 2.63 µM, 10.9 µM and 8.3 µM, respectively. Besides, the TGI was determined as 3.29 µM in experiment [1]; 17.1 µM in [2]; 20.7 µM in [3]; 11.6 µM in experiment [5]; 29.5 µM in experiment [6]; 28.3 µM in [7]. The values for the TGI in experiment [8], in experiment [9] and in [10] were 7.33 µM, 23.3 µM and 21.6 µM, respectively.
